# According to PubChem BioAssay AID328 (DTP/NCI, 2004):
# Where “and” joins values, the source holds several entries; their conditions need not be identical. Identical values can stand only once. Inconclusive results and toxic doses are left out.
# Test system: BDF1 mice, P388 leukemia ip, median survival T/C
# Assay: NCI In Vivo Anticancer Drug Screen. Data for tumor model P388 Leukemia (intraperitoneal) in B6D2F1 (BDF1) mice
# Settings: endpoint: median survival time, higher = longer survival
# Summary of the method: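 Reported as T/C, where T is the survival measurement in dosed animals and C the same measurement in vehicle controls.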
# [1] = dose: 75.0 mg/kg/injection, schedule: Q01DX009 (ip), vehicle: saline with Tween-80
# [2] = dose: 100.0 mg/kg/injection, schedule: Q01DX009 (ip), vehicle: saline with Tween-80
# [3] = dose: 100.0 mg/kg/injection, schedule: Q04DX003 (ip), vehicle: saline
# [4] = dose: 200.0 mg/kg/injection, schedule: Q04DX003 (ip), vehicle: saline
# [5] = dose: 300.0 mg/kg/injection, schedule: Q04DX003 (ip), vehicle: saline
smiles,measurement,setting,value
CC(C)OC(=S)SSc1nc2ccccc2s1,T/C,"dose: 9.37 mg/kg/injection, schedule: Q01DX009 (ip), vehicle: saline",115 % of control
same,T/C,"dose: 18.75 mg/kg/injection, schedule: Q01DX009 (ip), vehicle: saline",110 % of control
same,T/C,[1],112 % of control
C/C=C/C=C/C(=O)c1ccc(OC)cc1O,T/C,"dose: 50.0 mg/kg/injection, schedule: Q01DX009 (ip), vehicle: saline with Tween-80",109 % of control
same,T/C,[2],109 % of control
Oc1ccc(Nc2ccnc3cc(Cl)ccc23)cc1CN(CCCl)CCCl,T/C,"dose: 1.25 mg/kg/injection, schedule: Q01DX009 (ip), vehicle: saline",177 % of control
same,T/C,"dose: 2.5 mg/kg/injection, schedule: Q01DX009 (ip), vehicle: saline",194 % of control
same,T/C,"dose: 3.3 mg/kg/injection, schedule: Q04DX003 (ip), vehicle: saline",163 % of control
same,T/C,"dose: 5.0 mg/kg/injection, schedule: Q01DX009 (ip), vehicle: saline",150 % of control
same,T/C,"dose: 5.0 mg/kg/injection, schedule: Q04DX003 (ip), vehicle: saline",163 % of control
same,T/C,"dose: 10.0 mg/kg/injection, schedule: Q04DX003 (ip), vehicle: saline with Tween-80",160 % of control
C=C(C)COC(N)=O,T/C,[2],108 % of control
same,T/C,"dose: 200.0 mg/kg/injection, schedule: Q01DX009 (ip), vehicle: saline with Tween-80",104 % of control
same,T/C,"dose: 400.0 mg/kg/injection, schedule: Q01DX009 (ip), vehicle: saline with Tween-80",87 % of control
CN(C)C(=O)NNC(=O)N(C)C,T/C,"dose: 100.0 mg/kg/injection, schedule: Q01DX009 (ip), vehicle: saline",104 % of control
same,T/C,[3],100 % of control
same,T/C,"dose: 200.0 mg/kg/injection, schedule: Q01DX009 (ip), vehicle: saline",95 % of control
same,T/C,[4],100 % of control
same,T/C,"dose: 400.0 mg/kg/injection, schedule: Q01DX009 (ip), vehicle: saline",95 % of control
same,T/C,"dose: 400.0 mg/kg/injection, schedule: Q04DX003 (ip), vehicle: saline",100 % of control
CCOC(=O)C(N)CSC(c1ccccc1)(c1ccccc1)c1ccccc1 (stereo not given),T/C,"dose: 9.6 mg/kg/injection, schedule: Q04DX003 (ip), vehicle: saline",95 % of control
same,T/C,"dose: 14.0 mg/kg/injection, schedule: Q04DX003 (ip), vehicle: saline",100 % of control
same,T/C,"dose: 33.0 mg/kg/injection, schedule: Q04DX003 (ip), vehicle: saline",122 % of control
same,T/C,"dose: 50.0 mg/kg/injection, schedule: Q04DX003 (ip), vehicle: saline",155 % of control
same,T/C,[3],175 % of control
same,T/C,"dose: 132.0 mg/kg/injection, schedule: Q04DX003 (ip), vehicle: saline",181 % of control
same,T/C,[4],181 % of control and 215 % of control
same,T/C,[5],163 % of control
Cc1cc2no[n+]([O-])c2cc1C,T/C,"dose: 50.0 mg/kg/injection, schedule: Q01DX009 (ip), vehicle: Klucel (hydroxypropylcellulose) (HPC)",109 % of control
same,T/C,"dose: 100.0 mg/kg/injection, schedule: Q01DX009 (ip), vehicle: Klucel (hydroxypropylcellulose) (HPC)",109 % of control
same,T/C,"dose: 200.0 mg/kg/injection, schedule: Q01DX009 (ip), vehicle: Klucel (hydroxypropylcellulose) (HPC)",109 % of control
c1ccc(CC(Cc2ccccc2)c2nc3ccccc3s2)cc1,T/C,"dose: 75.0 mg/kg/injection, schedule: Q04DX003 (ip), vehicle: saline",100 % of control
same,T/C,"dose: 150.0 mg/kg/injection, schedule: Q04DX003 (ip), vehicle: saline",100 % of control
same,T/C,[5],95 % of control
Br[CH2][Sn]([Br])([Br])[CH2]Br,T/C,"dose: 3.12 mg/kg/injection, schedule: Q01DX009 (ip), vehicle: saline with Tween-80",111 % of control
same,T/C,"dose: 6.25 mg/kg/injection, schedule: Q01DX009 (ip), vehicle: saline with Tween-80",98 % of control
same,T/C,"dose: 12.5 mg/kg/injection, schedule: Q01DX009 (ip), vehicle: saline with Tween-80",115 % of control
CC(=O)OCC(OC(C)=O)C(OC(C)=O)C(OC(C)=O)C1COC(C)(C)O1 (stereo not given),T/C,[1],94 % of control
same,T/C,"dose: 150.0 mg/kg/injection, schedule: Q01DX009 (ip), vehicle: saline with Tween-80",86 % of control
same,T/C,"dose: 300.0 mg/kg/injection, schedule: Q01DX009 (ip), vehicle: saline with Tween-80",91 % of control
Clc1ccc(-c2cc(=[N+]3CC[N+](=c4cc(-c5ccc(Cl)cc5)ss4)CC3)ss2)cc1,T/C,"dose: 50.0 mg/kg/injection, schedule: Q04DX003 (ip), vehicle: water",109 % of control
same,T/C,"dose: 100.0 mg/kg/injection, schedule: Q01DX009 (ip), vehicle: water",121 % of control
same,T/C,"dose: 100.0 mg/kg/injection, schedule: Q04DX003 (ip), vehicle: water",116 % of control
same,T/C,"dose: 200.0 mg/kg/injection, schedule: Q01DX009 (ip), vehicle: water",111 % of control
same,T/C,"dose: 200.0 mg/kg/injection, schedule: Q04DX003 (ip), vehicle: water",109 % of control
